Assay results reported in US7846959B2, “Raf modulators and methods of use” (Exelixis, Inc., priority 2004, dated 2010).

Legend:
[1] = biological target: c-Raf (Homo sapiens, UniProt P04049); assay: Luciferase-coupled chemiluminescence kinase assay (ATP consumption), c-Raf; type: biochemical; conditions: read-out: cRaf-1 IC50
Outline: (§1)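 Read-out: percent ATP consumed, quantified by luciferase/luciferin chemiluminescence after the kinase step. ATP consumption was held at 25-60%. Kinase ([…]) plus compound were preincubated 30 min at RT in Tris pH 7.5 buffer with MgCl2, Triton and DTT, then reacted with ATP for 3 h.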

[2] = biological target: B-Raf (Homo sapiens, UniProt P15056); assay: Luciferase-coupled chemiluminescence kinase assay (ATP consumption), B-Raf; type: biochemical; conditions: read-out: bRaf IC50
Outline: as §1

Sequence of c-Raf (P04049 whole entry): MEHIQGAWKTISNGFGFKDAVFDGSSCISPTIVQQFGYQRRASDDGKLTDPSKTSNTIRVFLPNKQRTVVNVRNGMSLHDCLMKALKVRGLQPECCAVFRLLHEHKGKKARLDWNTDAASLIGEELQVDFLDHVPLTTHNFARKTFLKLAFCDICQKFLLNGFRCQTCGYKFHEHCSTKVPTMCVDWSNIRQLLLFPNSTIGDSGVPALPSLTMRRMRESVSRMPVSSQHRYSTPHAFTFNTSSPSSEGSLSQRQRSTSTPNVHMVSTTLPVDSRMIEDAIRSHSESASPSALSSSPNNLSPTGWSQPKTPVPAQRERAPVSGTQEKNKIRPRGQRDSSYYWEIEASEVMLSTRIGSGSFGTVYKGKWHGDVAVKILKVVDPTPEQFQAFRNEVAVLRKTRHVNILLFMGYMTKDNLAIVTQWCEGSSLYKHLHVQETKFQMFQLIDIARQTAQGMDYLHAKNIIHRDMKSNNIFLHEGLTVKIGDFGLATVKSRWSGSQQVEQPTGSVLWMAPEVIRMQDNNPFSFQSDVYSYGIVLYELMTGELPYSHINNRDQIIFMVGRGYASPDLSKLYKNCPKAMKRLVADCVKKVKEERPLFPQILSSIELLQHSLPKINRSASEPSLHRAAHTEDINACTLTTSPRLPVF
Sequence of B-Raf (P15056 whole entry): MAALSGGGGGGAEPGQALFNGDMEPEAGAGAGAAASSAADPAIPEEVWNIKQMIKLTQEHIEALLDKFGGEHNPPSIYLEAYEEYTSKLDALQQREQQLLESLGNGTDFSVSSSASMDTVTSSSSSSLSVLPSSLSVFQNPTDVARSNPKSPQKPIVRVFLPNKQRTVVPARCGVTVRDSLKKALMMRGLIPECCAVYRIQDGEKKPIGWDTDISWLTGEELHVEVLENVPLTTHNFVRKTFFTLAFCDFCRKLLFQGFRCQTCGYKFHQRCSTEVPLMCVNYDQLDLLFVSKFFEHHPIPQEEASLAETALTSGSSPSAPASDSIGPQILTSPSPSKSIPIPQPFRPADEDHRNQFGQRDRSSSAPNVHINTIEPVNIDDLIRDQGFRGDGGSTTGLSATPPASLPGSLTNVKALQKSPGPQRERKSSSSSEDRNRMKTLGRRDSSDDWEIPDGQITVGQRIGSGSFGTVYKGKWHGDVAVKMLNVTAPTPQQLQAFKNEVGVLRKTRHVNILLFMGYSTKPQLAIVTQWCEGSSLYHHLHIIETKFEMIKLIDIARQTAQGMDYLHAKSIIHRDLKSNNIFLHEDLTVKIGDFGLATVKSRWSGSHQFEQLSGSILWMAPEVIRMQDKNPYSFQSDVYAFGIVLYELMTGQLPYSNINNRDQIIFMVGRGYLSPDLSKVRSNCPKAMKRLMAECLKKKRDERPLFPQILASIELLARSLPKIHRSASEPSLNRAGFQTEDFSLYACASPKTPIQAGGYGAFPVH

IC50 [1] | IC50 [2] | SMILES
1000 to 10000 nM | 1000 to 10000 nM | CC[C@@H](c1ccccc1)N1C(=O)c2ccccc2C1(O)c1ccc2[nH]c(NC(=O)OC)nc2c1 (stereo partly drawn) [Entry 199, methyl (5-{1-hydroxy-3-oxo-2-[(1S)-1-phenylpropyl]-2,3-dihydro-1H-isoindol-1-yl}-1H-benzimidazol-2-yl)carbamate]
1000 to 10000 nM | 1000 to 10000 nM | COC(=O)Nc1nc2cc(C3(O)c4ccccc4C(=O)N3C(C)c3cccc(Cl)c3C)ccc2[nH]1 (stereo not shown) [Entry 200, methyl (5-{2-[1-(3-chloro-2-methylphenyl)ethyl]-1-hydroxy-3-oxo-2,3-dihydro-1H-isoindol-1-yl}-1H-benzimidazol-2-yl)carbamate]
< 100 nM | < 100 nM | COC(=O)Nc1nc2cc(C3(O)c4ccccc4C(=O)N3C(C)c3ccc(C)s3)ccc2[nH]1 (stereo not shown) [Entry 201, methyl (5-{1-hydroxy-2-[1-(5-methyl-2-thienyl)ethyl]-3-oxo-2,3-dihydro-1H-isoindol-1-yl}-1H-benzimidazol-2-yl)carbamate]
< 100 nM | < 100 nM | COC(=O)Nc1nc2cc(C3(O)c4ccccc4C(=O)N3C(C)c3ccc(Cl)s3)ccc2[nH]1 (stereo not shown) [Entry 202, methyl (5-{2-[1-(5-chloro-2-thienyl)ethyl]-1-hydroxy-3-oxo-2,3-dihydro-1H-isoindol-1-yl}-1H-benzimidazol-2-yl)carbamate]
< 100 nM | < 100 nM | COC(=O)Nc1nc2cc(C3(O)c4ccccc4C(=O)N3c3cccc(I)c3)ccc2[nH]1 (stereo not shown) [Entry 203, methyl {5-[1-hydroxy-2-(3-iodophenyl)-3-oxo-2,3-dihydro-1H-isoindol-1-yl]-1H-benzimidazol-2-yl}carbamate]
< 100 nM | < 100 nM | COC(=O)Nc1nc2cc(C3(O)c4ccccc4C(=O)N3c3cccc(C(C)C)c3)ccc2[nH]1 (stereo not shown) [Entry 204, methyl (5-{1-hydroxy-2-[3-(1-methylethyl)phenyl]-3-oxo-2,3-dihydro-1H-isoindol-1-yl}-1H-benzimidazol-2-yl)carbamate]
< 100 nM | < 100 nM | COC(=O)Nc1nc2cc(C3(O)c4ccccc4C(=O)N3Cc3ccco3)ccc2[nH]1 (stereo not shown) [Entry 205, methyl {5-[2-(furan-2-ylmethyl)-1-hydroxy-3-oxo-2,3-dihydro-1H-isoindol-1-yl]-1H-benzimidazol-2-yl}carbamate]
< 100 nM | < 100 nM | COC(=O)Nc1nc2cc(C3(O)c4ccccc4C(=O)N3Cc3ccsc3)ccc2[nH]1 (stereo not shown) [Entry 206, methyl {5-[1-hydroxy-3-oxo-2-(3-thienylmethyl)-2,3-dihydro-1H-isoindol-1-yl]-1H-benzimidazol-2-yl}carbamate]
< 100 nM | < 100 nM | COC(=O)Nc1nc2cc(C3(O)c4ccccc4C(=O)N3CC3CCC3)ccc2[nH]1 (stereo not shown) [Entry 207, methyl {5-[2-(cyclobutylmethyl)-1-hydroxy-3-oxo-2,3-dihydro-1H-isoindol-1-yl]-1H-benzimidazol-2-yl}carbamate]
1000 to 10000 nM | 1000 to 10000 nM | O=C1c2ccccc2C(O)(c2ccc3[nH]c(NC(=O)C(O)(C(F)(F)F)C(F)(F)F)nc3c2)N1Cc1ccccc1 (stereo not shown) [Entry 208, 3,3,3-trifluoro-2-hydroxy-N-{5-[1-hydroxy-3-oxo-2-(phenylmethyl)-2,3-dihydro-1H-isoindol-1-yl]-1H-benzimidazol-2-yl}-2-(trifluoromethyl)propanamide]
< 100 nM | < 100 nM | COC(=O)Nc1nc2cc(C3(O)c4ccccc4C(=O)N3C(C)c3cc(C)cs3)ccc2[nH]1 (stereo not shown) [Entry 209, methyl (5-{1-hydroxy-2-[1-(4-methyl-2-thienyl)ethyl]-3-oxo-2,3-dihydro-1H-isoindol-1-yl}-1H-benzimidazol-2-yl)carbamate]
< 100 nM | < 100 nM | COC(=O)Nc1nc2cc(C3(O)c4ccccc4C(=O)N3C(C)c3cc(Br)cs3)ccc2[nH]1 (stereo not shown) [Entry 210, methyl (5-{2-[1-(4-bromo-2-thienyl)ethyl]-1-hydroxy-3-oxo-2,3-dihydro-1H-isoindol-1-yl}-1H-benzimidazol-2-yl)carbamate]
1000 to 10000 nM | 1000 to 10000 nM | COCCOc1cccc(N2C(=O)c3ccccc3C2(O)c2ccc3[nH]c(NC(=O)OC)nc3c2)c1 (stereo not shown) [Entry 211, methyl {5-[1-hydroxy-2-(3-{[2-(methyloxy)ethyl]oxy}phenyl)-3-oxo-2,3-dihydro-1H-isoindol-1-yl]-1H-benzimidazol-2-yl}carbamate]
< 100 nM | < 100 nM | O=C(Nc1nc2cc(C3(O)c4ccccc4C(=O)N3Cc3ccccc3)ccc2[nH]1)OCC1CCOC1 (stereo not shown) [Entry 212, tetrahydrofuran-3-ylmethyl {5-[1-hydroxy-3-oxo-2-(phenylmethyl)-2,3-dihydro-1H-isoindol-1-yl]-1H-benzimidazol-2-yl}carbamate]
100 to 1000 nM | 1000 to 10000 nM | O=C(Nc1nc2cc(C3(O)c4ccccc4C(=O)N3Cc3ccccc3)ccc2[nH]1)N1CCCCC1 (stereo not shown) [Entry 213, N-{5-[1-hydroxy-3-oxo-2-(phenylmethyl)-2,3-dihydro-1H-isoindol-1-yl]-1H-benzimidazol-2-yl}piperidine-1-carboxamide]
< 100 nM | < 100 nM | COC(=O)Nc1nc2cc(C3(O)c4ccccc4C(=O)N3c3ccc(F)c(Br)c3)ccc2[nH]1 (stereo not shown) [Entry 214, methyl {5-[2-(3-bromo-4-fluorophenyl)-1-hydroxy-3-oxo-2,3-dihydro-1H-isoindol-1-yl]-1H-benzimidazol-2-yl}carbamate]
< 100 nM | < 100 nM | O=C(Nc1nc2cc(C3(O)c4ccccc4C(=O)N3Cc3ccccc3)ccc2[nH]1)OCC(O)CO (stereo not shown) [Entry 215, 2,3-dihydroxypropyl {5-[1-hydroxy-3-oxo-2-(phenylmethyl)-2,3-dihydro-1H-isoindol-1-yl]-1H-benzimidazol-2-yl}carbamate]
100 to 1000 nM | 100 to 1000 nM | COC(=O)Nc1nc2cc(C3(O)c4ccccc4C(=O)N3CC3CCCO3)ccc2[nH]1 (stereo not shown) [Entry 216, methyl {5-[1-hydroxy-3-oxo-2-(tetrahydrofuran-2-ylmethyl)-2,3-dihydro-1H-isoindol-1-yl]-1H-benzimidazol-2-yl}carbamate]
100 to 1000 nM | < 100 nM | COC(=O)Nc1nc2cc(C3(O)c4ccccc4C(=O)N3c3cccc(C(N)=O)c3)ccc2[nH]1 (stereo not shown) [Entry 217, methyl (5-{2-[3-(aminocarbonyl)phenyl]-1-hydroxy-3-oxo-2,3-dihydro-1H-isoindol-1-yl}-1H-benzimidazol-2-yl)carbamate]
1000 to 10000 nM | 1000 to 10000 nM | O=C(CC(O)(C(F)(F)F)C(F)(F)F)Nc1nc2cc(C3(O)c4ccccc4C(=O)N3Cc3ccccc3)ccc2[nH]1 (stereo not shown) [Entry 218, 4,4,4-trifluoro-3-hydroxy-N-{5-[1-hydroxy-3-oxo-2-(phenylmethyl)-2,3-dihydro-1H-isoindol-1-yl]-1H-benzimidazol-2-yl}-3-(trifluoromethyl)butanamide]
100 to 1000 nM | 100 to 1000 nM | COC(=O)Nc1nc2cc(C3(O)c4ccccc4C(=O)N3c3cccc(S(C)(=O)=O)c3)ccc2[nH]1 (stereo not shown) [Entry 219, methyl (5-{1-hydroxy-2-[3-(methylsulfonyl)phenyl]-3-oxo-2,3-dihydro-1H-isoindol-1-yl}-1H-benzimidazol-2-yl)carbamate]
< 100 nM | < 100 nM | COC(=O)Nc1nc2cc(C3(O)c4ccccc4C(=O)N3c3cccc(Oc4ccccc4)c3)ccc2[nH]1 (stereo not shown) [Entry 220, methyl (5-{1-hydroxy-3-oxo-2-[3-(phenyloxy)phenyl]-2,3-dihydro-1H-isoindol-1-yl}-1H-benzimidazol-2-yl)carbamate]
< 100 nM | 100 to 1000 nM | COC(=O)Nc1nc2cc(C3(O)c4ccccc4C(=O)N3c3cccc(OCc4ccccc4)c3)ccc2[nH]1 (stereo not shown) [Entry 221, methyl [5-(1-hydroxy-3-oxo-2-{3-[(phenylmethyl)oxy]phenyl}-2,3-dihydro-1H-isoindol-1-yl)-1H-benzimidazol-2-yl]carbamate]
1000 to 10000 nM | 1000 to 10000 nM | COC(=O)Nc1nc2cc(C3(O)c4ccccc4C(=O)N3c3cccc(-c4ccccc4)c3)ccc2[nH]1 (stereo not shown) [Entry 222, methyl [5-(2-biphenyl-3-yl-1-hydroxy-3-oxo-2,3-dihydro-1H-isoindol-1-yl)-1H-benzimidazol-2-yl]carbamate]
< 100 nM | 100 to 1000 nM | CC(C)(COCc1ccccc1)COC(=O)Nc1nc2cc(C3(O)c4ccccc4C(=O)N3Cc3ccccc3)ccc2[nH]1 (stereo not shown) [Entry 223, 2,2-dimethyl-3-[(phenylmethyl)oxy]propyl {5-[1-hydroxy-3-oxo-2-(phenylmethyl)-2,3-dihydro-1H-isoindol-1-yl]-1H-benzimidazol-2-yl}carbamate]
< 100 nM | < 100 nM | COC(=O)Nc1nc2cc(C3(O)c4ccccc4C(=O)N3c3cccc(Cl)c3F)ccc2[nH]1 (stereo not shown) [Entry 224, methyl {5-[2-(3-chloro-2-fluorophenyl)-1-hydroxy-3-oxo-2,3-dihydro-1H-isoindol-1-yl]-1H-benzimidazol-2-yl}carbamate]
100 to 1000 nM | 100 to 1000 nM | COC(=O)Nc1nc2cc(C3(O)c4ccccc4C(=O)N3c3cccc(C#N)c3)ccc2[nH]1 (stereo not shown) [Entry 225, methyl {5-[2-(3-cyanophenyl)-1-hydroxy-3-oxo-2,3-dihydro-1H-isoindol-1-yl]-1H-benzimidazol-2-yl}carbamate]
< 100 nM | < 100 nM | C#Cc1cc(N2C(=O)c3ccccc3C2(O)c2ccc3[nH]c(NC(=O)OC)nc3c2)ccc1F (stereo not shown) [Entry 226, methyl {5-[2-(3-ethynyl-4-fluorophenyl)-1-hydroxy-3-oxo-2,3-dihydro-1H-isoindol-1-yl]-1H-benzimidazol-2-yl}carbamate]
< 100 nM | < 100 nM | COC(=O)Nc1nc2cc(C3(O)c4ccccc4C(=O)N3c3ccc(F)c(C)c3)ccc2[nH]1 (stereo not shown) [Entry 227, methyl {5-[2-(4-fluoro-3-methylphenyl)-1-hydroxy-3-oxo-2,3-dihydro-1H-isoindol-1-yl]-1H-benzimidazol-2-yl}carbamate]
